Key:
[1] = target: T1, human recombinant muscarinic receptor subtype 1 (M1) expressed in CHO cells (Homo sapiens, UniProt P11229); assay: [3H]-N-methyl-scopolamine ([3H]-NMS) affinity screening test, M1; conditions: inhibition of specific [3H]-NMS binding
T1 construct: purchased Biosignal, Canada; host or cells: CHO cells
T1 sequence (P11229 1-460): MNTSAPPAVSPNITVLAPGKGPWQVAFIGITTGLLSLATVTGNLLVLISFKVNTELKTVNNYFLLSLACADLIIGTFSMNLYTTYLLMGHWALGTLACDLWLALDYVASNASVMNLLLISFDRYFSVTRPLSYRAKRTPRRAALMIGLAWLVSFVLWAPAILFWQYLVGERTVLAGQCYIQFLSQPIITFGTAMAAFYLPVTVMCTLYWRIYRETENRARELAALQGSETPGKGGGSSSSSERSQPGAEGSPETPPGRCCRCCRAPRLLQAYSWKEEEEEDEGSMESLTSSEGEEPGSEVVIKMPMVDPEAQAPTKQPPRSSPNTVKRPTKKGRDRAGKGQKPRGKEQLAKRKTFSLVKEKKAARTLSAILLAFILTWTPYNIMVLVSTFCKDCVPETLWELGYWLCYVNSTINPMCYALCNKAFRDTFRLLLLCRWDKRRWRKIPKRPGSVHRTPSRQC
Text: (§1) [^3H]-N-methyl-scopolamine ([^3H]-NMS) Affinity Screening Test
(§2) In order to exclude the interaction between subtypes, human recombinant muscarinic receptor subtypes 1, 2 and 3 expressed in CHO cells (M1, M2 and M3, Biosignal, Canada) were purchased and used as receptor sources. [^3H]-N-methyl-scopolamine (NEN, NET-636) was used as radioisotope labeled ligands, and atropine was used for the measurement of the non-specific binding ability. About 10 kinds of experimental apparatuses including Liquid Scintillation Counter (MicroBeta 1450 plus), Inotech cell harvester (96-well) were used.
(§3) In order to determine the effect of each compound on M1 and M2 receptors, the compounds were reacted with the receptors using radioisotope labeled ligands. After the reaction, the excess unbound ligands were removed by filtering with a glass fiber filter.
The freeze-stored receptors at −70° C. were suspended in test buffer solutions and then the screening test (BioRad protein) was carried out to determine the optimum concentration of the proteins. Thereafter, 50 μL of hot-ligands and 10 μL of test drugs were added to 96-well plate and 100 μL of 50 mM TRIS buffer (pH 7.2) containing 10 mM MgCl2 and 1 mM EDTA was added as a test buffer. The final volume of the reaction was 0.25 mL. The reaction was initiated by adding 100 μL of the diluted receptor suspension, and continued for 60 minutes on a shaking incubator at 27° C. This test was repeated four times. After 60 minutes, the reaction was terminated by adding cold TRIS buffer (0.5 mL, pH 7.4). The excess unbound radioisotopes were removed from the reaction mixture using Inotech cell harvester system. After washing the mixture, the radioactivity detected by the filter mat was measured using Liquid Scintillation Counter. As primary stage of the efficacy screening, the drugs at two concentrations (1 μM, 10 μM) were screened for their affinity for the receptors. […] Finally, IC50 values were calculated at the gradient of 10 concentrations. The test drugs were diluted sequentially for the required concentrations by dissolving them in dimethylsulfoxide (DMSO). […] From the saturation affinity screening test, Kd and Bmax values, and IC50 or Ki values of each test drugs were calculated by observing the non-linear regression using prism (Graphpad software Inc.,USA).
(§4) In the equilibrium affinity screening test, [^3H]-N-methyl-scopolamines at the gradient of 12 concentrations were used for the measurement of the binding ability (IC50). In the competition screening test, 1 nM of [^3H]-N-methyl-scopolamines, and the reference drugs at the gradient of 10 concentrations were used for the measurement. 4-DAMP-methyliodide, Pirenzepine, p-F-hexahydro-sila-defenidol, Methoctramine, and the like were used as reference drugs.

[2] = tested on: T2, Oxo-M binding receptor of muscarinic receptors (rat forebrain synapse membranes); assay: [3H]-oxotremorine-M ([3H]-Oxo-M) affinity screening test; conditions: inhibition of specific [3H]-Oxo-M binding, under head M1; for M1 Oxo-M (1 μM) inhibition: compound at 1 μM
T2 construct: under head M1
Text: (§5) [^3H]-oxotremorine-M ([^3H]-Oxo-M) Affinity Screening Test
(§6) The experimental principle was the same as [^3H]-NMS affinity screening test. […] The functions of the compounds may be determined by carrying out both of [^3H]-NMS and [^3H]-Oxo-M (oxotremorine) affinity screening tests to measure their respective IC50 values and calculating ratios (NMS/Oxo-M) of the measured IC50 values.
(§7) Synapse membranes for binding assay of Oxo-M binding receptor of muscarinic receptors were directly prepared and used in the laboratory as follows: male Sparague-Dawley rats (supplied from Laboratory Animal Center of Korea Research Institute of Chemical Technology, 250 to 300 g) were sacrificed by decapitation. The brain tissues were immediately removed from and the forebrain was obtained, which was sectioned into small pieces. After adding 10-fold amount of ice-cooled solution of sucrose (0.32M), the sectioned forebrain was homogenized using Teflon-glass homogenizer (Contorque, Eberbach) at 10 strokes and 500 rpm, centrifuged at 1000 g for 15 minutes, and then the supernatant was again centrifuged at 17000 g for 20 minutes. The pellet was stored at −20° C. and then used.
(§8) Before the pellet was used at this assay, it was suspended in 10 mL of 20 mM HEPES buffer (pH 7.4), again centrifuged at 17000 g for 15 minutes and then washed. Finally, the washed membrane was diluted in ice-cooled 20 mM HEPES buffer (pH 7.4) to the final concentration of 1:100 (wet wt/v) and used at this assay. All test samples were tested four times, and 20 mM HEPES buffer (pH 7.4) was used as a buffer for screening test. The final volume of reaction was 1 mL, and 24-well plate (costar 24-well) was used. 50 μL of hot-ligand (Oxo-M 5 nM) and 10 μL of test drugs were included therein, and the reaction was initiated by adding 750 μL of synapse membrane and continued at 30° C. for 40 minutes on the shaking incubator. 2 μM atropine was used for non-specific binding in all tests. After completion of the reaction, the receptor binding ligands and non-binding ligands were separated by using Inotech cell harvester (24-channels, Inotech, Switzerland) and filtering under reduced pressure (10×ice-cooled saline) with Wallac GF/C filter (pre-immersed in 0.05% polyethylene imine). The radioactivity of the receptor binding ligands was detected by Liquid Scintillation Counter (MicroBeta Plus, Wallac, Finland).
(§9) The test drugs were diluted sequentially for the required concentrations by dissolving them in dimethylsulfoxide (DMSO) and used in the test. […] From the saturated affinity screening test, Kd and Bmax values, and IC50 or Ki values of respective test drugs were calculated by observing the non-linear regression using prism (Graphpad software Inc., USA). The saturated affinity screening test was carried out in the range of 0.1 to 10 nM of [^3H]-Oxo-M ligand as described above.

[3] = tested on: Oxo-M binding receptor of muscarinic receptors (rat forebrain synapse membranes); assay: as above; conditions: ratio IC50 NMS / IC50 Oxo-M; >180 full agonist, 14 to 130 partial agonist, 0.2 to 1.9 antagonist
Text: as §5, §6, §7, §8, §9

[4] = target: T3, human recombinant muscarinic receptor subtype 2 (M2) expressed in CHO cells (Homo sapiens, UniProt P08172); assay: [3H]-N-methyl-scopolamine ([3H]-NMS) affinity screening test, M2; conditions: inhibition of specific [3H]-NMS binding, compound at 1 μM
T3 construct: purchased Biosignal, Canada; host or cells: CHO cells
T3 sequence (P08172 1-466): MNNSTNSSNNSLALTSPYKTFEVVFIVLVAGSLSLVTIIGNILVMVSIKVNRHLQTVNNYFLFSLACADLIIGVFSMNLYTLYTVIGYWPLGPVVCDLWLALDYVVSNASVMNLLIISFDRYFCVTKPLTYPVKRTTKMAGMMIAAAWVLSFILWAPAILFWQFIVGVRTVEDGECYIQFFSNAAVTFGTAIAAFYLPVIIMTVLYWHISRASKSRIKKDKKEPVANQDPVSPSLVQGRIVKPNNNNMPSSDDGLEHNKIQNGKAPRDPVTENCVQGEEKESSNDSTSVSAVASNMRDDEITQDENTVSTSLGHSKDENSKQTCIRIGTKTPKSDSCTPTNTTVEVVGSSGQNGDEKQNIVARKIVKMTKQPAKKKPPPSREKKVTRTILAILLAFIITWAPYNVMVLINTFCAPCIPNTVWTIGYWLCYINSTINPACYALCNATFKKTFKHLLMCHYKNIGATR
Text: as §1, §2
as §3, with “filter. The amount of radioisotopes remaining on the washed filter plate was then measured to quantify the binding reaction between the receptors and the ligands and, from the result, the affinity of the drugs for the receptors was determined.” for “filter.”
The freeze-stored receptors at −70° C. were suspended in test buffer solutions and then the screening test (BioRad protein) was carried out to determine the optimum concentration of the proteins. Thereafter, 50 μL of hot-ligands and 10 μL of test drugs were added to 96-well plate and 100 μL of 50 mM TRIS buffer (pH 7.2) containing 10 mM MgCl2 and 1 mM EDTA was added as a test buffer. The final volume of the reaction was 0.25 mL. The reaction was initiated by adding 100 μL of the diluted receptor suspension, and continued for 60 minutes on a shaking incubator at 27° C. This test was repeated four times. After 60 minutes, the reaction was terminated by adding cold TRIS buffer (0.5 mL, pH 7.4). The excess unbound radioisotopes were removed from the reaction mixture using Inotech cell harvester system. After washing the mixture, the radioactivity detected by the filter mat was measured using Liquid Scintillation Counter. As primary stage of the efficacy screening, the drugs at two concentrations (1 μM, 10 μM) were screened for their affinity for the receptors. As secondary stage, drugs showing remarkable efficacies were determined at the lower concentrations. Finally, IC50 values were calculated at the gradient of 10 concentrations. The test drugs were diluted sequentially for the required concentrations by dissolving them in dimethylsulfoxide (DMSO). […] From the saturation affinity screening test, Kd and Bmax values, and IC50 or Ki values of each test drugs were calculated by observing the non-linear regression using prism (Graphpad software Inc.,USA).
as §4

Row | SMILES | IC50 [1] [nM] | inhibition at 10 µM ([1]; compound at 10 μM) [%] | M1 Oxo-M (1 μM) inhibition [2] [%] | IC50 [2] [nM] | NMS/Oxo-M (ratio of IC50 values) [3] | inhibition at 1 µM [4] [%] | M1 NMS (10 μM) inhibition ([1]; compound at 10 μM) [%] | M2 NMS (1 μM) inhibition [4] [%]
1 | CN1CCC=C(C#CCN2CCCC2=O)C1 [Example 30, 1-[3-(1-methyl-1,2,5,6-tetrahydro-pyridin-3-yl)-propyn-2-yl]-pyrrolidin-2-one] | 10800 | 58.5 | 96.6 | 14 | 774 | 42.3 | – | –
2 | COC(=O)C1=CCCN(C)C1 [Arecoline, reference compound] | – | – | 85.5 | 140 | – | – | – | –
3 | CN1CCC=C(C(CN2CCCC2=O)=NOCc2ccccc2)C1 (mixture of isomers) [Example 29, 1-[2-benzyloxyimino-2-(1-methyl-1,2,5,6-tetrahydro-pyridin-3-yl)-ethyl]-pyrrolidin-2-one] | 79200 | 0 | 78.4 | 163 | 486 | 0 | – | –
4 | C#CCON=C(CN1CCCC1=O)c1cccnc1 [Example 24, 1-(2-propyn-2-yloxyimino-2-pyridin-3-yl-ethyl)-pyrrolidin-2-one] | – | – | 58.0 | 327 | 306 | – | 0 | 0
5 | CN1CCC=C(C(CCN2CCCC2=O)=NO)C1 [Example 16, 1-[3-hydroxyimino-3-(1-methyl-1,2,5,6-tetrahydro-pyridin-3-yl)-propyl]-pyrrolidin-2-one] | 17400 | 39.5 | 92.4 | 74 | 236 | 22.6 | – | –
6 | C#CCON=C(CCN1CCCC1=O)C1=CCCN(C)C1 [Example 18, 1-[3-(1-methyl-1,2,5,6-tetrahydro-pyridin-3-yl)-3-propyn-2-yloxyimino-propyl]-pyrrolidin-2-one] | 13400 | 42.9 | 75.3 | 381 | 35 | 26.8 | – | –
7 | CN1CCC=C(C(CN2CCCC2=O)=NO)C1 [Example 26, 1-[2-hydroxyimino-2-(1-methyl-1,2,5,6-tetrahydro-pyridin-3-yl)-ethyl]-pyrrolidin-2-one] | 3630 | 87.6 | 96.9 | 0.89 | 4078 | 94.1 | – | –

Reference: patent US6716857B2, “Tetrahydropyridine derivatives acting on muscarinic acetylcholine receptors” (Korea Institute of Science and Technology, priority 2001, dated 2004)
